Each structure is given as a SMILES string. Structures can show the parent of a compound that is named as a salt.

One assay addresses T1, human JAK1 (Homo sapiens, UniProt P23458).
T1 construct: human JAK1 (a.a. 837-1142); His tag (N); made in house; host or cells: insect cells (baculovirus)
Nature of the assay: In Vitro JAK Kinase Assay (HTRF, phosphorylation of a biotinylated peptide), JAK1. Type of assay: biochemical. As to conditions: catalytic domain a.a. 837-1142, assay of Example A. The procedure:
(§1) The catalytic activity of JAK1, JAK2 or JAK3 was assayed by measuring the phosphorylation of a biotinylated peptide. The phosphorylated peptide was detected by homogenous time resolved fluorescence (HTRF). […] Reactions were carried out at room temperature for 1 hour and then stopped with 20 μL 45 mM EDTA, 300 nM SA-APC, 6 nM Eu-Py20 in assay buffer (Perkin Elmer, Boston, Mass.). Binding to the Europium labeled antibody took place for 40 minutes and HTRF signal was measured on a Fusion plate reader (Perkin Elmer, Boston, Mass.).
(In general: Time-resolved FRET reads energy transfer from a long-lived donor to a nearby acceptor.)

A further assay addresses T2, human JAK2 (Homo sapiens, UniProt O60674).
T2 construct: JAK2 (a.a. 828-1132); His tag (N); made in house; host or cells: insect cells (baculovirus)
Nature of the assay: In Vitro JAK Kinase Assay (HTRF, phosphorylation of a biotinylated peptide), JAK2. Type of assay: biochemical. As to conditions: assay of Example A. As to the method:
as §1

T1 sequence (P23458 849-1154): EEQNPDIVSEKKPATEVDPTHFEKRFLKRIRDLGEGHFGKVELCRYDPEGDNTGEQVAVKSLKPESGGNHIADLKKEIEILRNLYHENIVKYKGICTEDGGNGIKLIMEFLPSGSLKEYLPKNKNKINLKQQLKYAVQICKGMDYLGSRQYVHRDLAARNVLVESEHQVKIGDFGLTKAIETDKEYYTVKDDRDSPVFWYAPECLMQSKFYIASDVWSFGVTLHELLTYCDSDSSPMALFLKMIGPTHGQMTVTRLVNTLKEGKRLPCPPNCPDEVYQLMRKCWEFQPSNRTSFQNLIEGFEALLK
T2 sequence (O60674 828-1132): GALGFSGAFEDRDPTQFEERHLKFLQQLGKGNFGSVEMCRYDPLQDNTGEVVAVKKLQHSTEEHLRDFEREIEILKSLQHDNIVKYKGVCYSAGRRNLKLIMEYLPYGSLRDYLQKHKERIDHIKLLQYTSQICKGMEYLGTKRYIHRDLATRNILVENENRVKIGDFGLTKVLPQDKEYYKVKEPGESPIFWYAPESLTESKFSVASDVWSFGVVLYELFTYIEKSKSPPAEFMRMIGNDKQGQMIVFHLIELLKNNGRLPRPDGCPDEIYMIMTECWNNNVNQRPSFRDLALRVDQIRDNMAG

Broadly, the IC50 is the concentration that gives 50% inhibition. Read a low IC50 as greater potency in that assay. `N#CCC1(n2cc(-c3ncnc4[nH]ccc34)cn2)CN([C@H]2CC[C@@H](Oc3cc(CN4CCC[C@H]4CO)cc(C(F)(F)F)n3)CC2)C1.O=C(O)C(F)(F)F.O=C(O)C(F)(F)F.O=C(O)C(F)(F)F` (stereo in doubt) [Example 94, {1-(cis-4-{[4-{[(2S)-2-(hydroxymethyl)pyrrolidin-1-yl]methyl}-6-(trifluoromethyl)pyridin-2-yl]oxy}cyclohexyl)-3-[4-(7H-pyrrolo[2,3-d]pyrimidin-4-yl)-1H-pyrazol-1-yl]azetidin-3-yl}acetonitrile tris(trifluoroacetate)]: on human JAK1 (Table 5), the IC50 was less than 10 nM. Moreover, at human JAK2 (Table 5), the “JAK2/JAK1 IC50 ratio” value was “≧10”.

For `CN(C)Cc1cc(O[C@H]2CC[C@@H](N3CC(CC#N)(n4cc(-c5ncnc6[nH]ccc56)cn4)C3)CC2)nc(C(F)(F)F)n1` [Example 1, {1-(cis-4-{[6-[(Dimethylamino)methyl]-2-(trifluoromethyl)pyrimidin-4-yl]oxy}cyclohexyl)-3-[4-(7H-pyrrolo[2,3-d]pyrimidin-4-yl)-1H-pyrazol-1-yl]azetidin-3-yl}acetonitrile tetrakis(trifluoroacetate)], the IC50 against human JAK1 (Table 4) is less than 10 nM. Further, the “JAK2/JAK1 IC50 ratio” value at human JAK2 (Table 4) is “≧10”.

Regarding `N#CCC1(n2cc(-c3ncnc4[nH]ccc34)cn2)CN([C@H]2CC[C@@H](Oc3cc(CO)nc(C(F)(F)F)n3)CC2)C1` [Example 2, {1-(cis-4-{[6-(Hydroxymethyl)-2-(trifluoromethyl)pyrimidin-4-yl]oxy}cyclohexyl)-3-[4-(7H-pyrrolo[2,3-d]pyrimidin-4-yl)-1H-pyrazol-1-yl]azetidin-3-yl}acetonitrile bis(trifluoroacetate)], the IC50 on human JAK1 (Table 4) is less than 10 nM. In addition, the “JAK2/JAK1 IC50 ratio” value on human JAK2 (Table 4) is given as “≧10”.

On to `N#CCC1(n2cc(-c3ncnc4[nH]ccc34)cn2)CN([C@H]2CC[C@@H](Oc3cc(CN)nc(C(F)(F)F)n3)CC2)C1` [Example 3, {1-(cis-4-{[6-(Aminomethyl)-2-(trifluoromethyl)pyrimidin-4-yl]oxy}cyclohexyl)-3-[4-(7H-pyrrolo[2,3-d]pyrimidin-4-yl)-1H-pyrazol-1-yl]azetidin-3-yl}acetonitrile tetrakis(trifluoroacetate)], for which, at human JAK1 (Table 4), the IC50 is less than 10 nM. Further, the “JAK2/JAK1 IC50 ratio” value on human JAK2 (Table 4) was “≧10”.

`CNCc1cc(O[C@H]2CC[C@@H](N3CC(CC#N)(n4cc(-c5ncnc6[nH]ccc56)cn4)C3)CC2)nc(C(F)(F)F)n1` [Example 4, {1-(cis-4-{[6-[(Methylamino)methyl]-2-(trifluoromethyl)pyrimidin-4-yl]oxy}cyclohexyl)-3-[4-(7H-pyrrolo[2,3-d]pyrimidin-4-yl)-1H-pyrazol-1-yl]azetidin-3-yl}acetonitrile tris(trifluoroacetate)] yielded an IC50 at human JAK1 (Table 4) of less than 10 nM. Further, on human JAK2 (Table 4), the “JAK2/JAK1 IC50 ratio” value was “≧10”.

As for `CCNCc1cc(O[C@H]2CC[C@@H](N3CC(CC#N)(n4cc(-c5ncnc6[nH]ccc56)cn4)C3)CC2)nc(C(F)(F)F)n1` [Example 5, {1-(cis-4-{[6-[(Ethylamino)methyl]-2-(trifluoromethyl)pyrimidin-4-yl]oxy}cyclohexyl)-3-[4-(7H-pyrrolo[2,3-d]pyrimidin-4-yl)-1H-pyrazol-1-yl]azetidin-3-yl}acetonitrile tris(trifluoroacetate)], the IC50 on human JAK1 (Table 4) is less than 10 nM. Moreover, on human JAK2 (Table 4), the “JAK2/JAK1 IC50 ratio” value is on record as “≧10”.

With `CC(C)NCc1cc(O[C@H]2CC[C@@H](N3CC(CC#N)(n4cc(-c5ncnc6[nH]ccc56)cn4)C3)CC2)nc(C(F)(F)F)n1.O=C(O)C(F)(F)F.O=C(O)C(F)(F)F.O=C(O)C(F)(F)F` [Example 6, {1-(cis-4-{[6-[(isopropylamino)methyl]-2-(trifluoromethyl)pyrimidin-4-yl]oxy}cyclohexyl)-3-[4-(7H-pyrrolo[2,3-d]pyrimidin-4-yl)-1H-pyrazol-1-yl]azetidin-3-yl}acetonitrile tris(trifluoroacetate)], the IC50 against human JAK1 (Table 4) is less than 10 nM. Further, the “JAK2/JAK1 IC50 ratio” value on human JAK2 (Table 4) is on record as “≧10”.

`N#CCC1(n2cc(-c3ncnc4[nH]ccc34)cn2)CN([C@H]2CC[C@@H](Oc3cc(CNC4CC4)nc(C(F)(F)F)n3)CC2)C1.O=C(O)C(F)(F)F.O=C(O)C(F)(F)F.O=C(O)C(F)(F)F` [Example 7, {1-(cis-4-{[6-[(cyclopropylamino)methyl]-2-(trifluoromethyl)pyrimidin-4-yl]oxy}cyclohexyl)-3-[4-(7H-pyrrolo[2,3-d]pyrimidin-4-yl)-1H-pyrazol-1-yl]azetidin-3-yl}acetonitrile tris(trifluoroacetate)] showed an IC50 on human JAK1 (Table 4) of less than 10 nM. In addition, the “JAK2/JAK1 IC50 ratio” value on human JAK2 (Table 4) is “≧10”.

In turn, `CCN(C)Cc1cc(O[C@H]2CC[C@@H](N3CC(CC#N)(n4cc(-c5ncnc6[nH]ccc56)cn4)C3)CC2)nc(C(F)(F)F)n1.O=C(O)C(F)(F)F.O=C(O)C(F)(F)F.O=C(O)C(F)(F)F` [Example 8, {1-(cis-4-{[6-{[ethyl(methyl)amino]methyl}-2-(trifluoromethyl)pyrimidin-4-yl]oxy}cyclohexyl)-3-[4-(7H-pyrrolo[2,3-d]pyrimidin-4-yl)-1H-pyrazol-1-yl]azetidin-3-yl}acetonitrile tris(trifluoroacetate)] had an IC50 at human JAK1 (Table 4) of less than 10 nM. Also, the “JAK2/JAK1 IC50 ratio” value on human JAK2 (Table 4) is given as “≧10”.

At human JAK1 (Table 4), `N#CCC1(n2cc(-c3ncnc4[nH]ccc34)cn2)CN([C@H]2CC[C@@H](Oc3cc(CNCC4CC4)nc(C(F)(F)F)n3)CC2)C1.O=C(O)C(F)(F)F.O=C(O)C(F)(F)F.O=C(O)C(F)(F)F` [Example 9, {1-(cis-4-{[6-{[(cyclopropylmethyl)amino]methyl}-2-(trifluoromethyl)pyrimidin-4-yl]oxy}cyclohexyl)-3-[4-(7H-pyrrolo[2,3-d]pyrimidin-4-yl)-1H-pyrazol-1-yl]azetidin-3-yl}acetonitrile tris(trifluoroacetate)] yielded an IC50 of less than 10 nM. Besides, the “JAK2/JAK1 IC50 ratio” value at human JAK2 (Table 4) was “≧10”.

As for `N#CCC1(n2cc(-c3ncnc4[nH]ccc34)cn2)CN([C@H]2CC[C@@H](Oc3cc(CNC4CCC4)nc(C(F)(F)F)n3)CC2)C1.O=C(O)C(F)(F)F.O=C(O)C(F)(F)F.O=C(O)C(F)(F)F` [Example 10, {1-(cis-4-{[6-[(cyclobutylamino)methyl]-2-(trifluoromethyl)pyrimidin-4-yl]oxy}cyclohexyl)-3-[4-(7H-pyrrolo[2,3-d]pyrimidin-4-yl)-1H-pyrazol-1-yl]azetidin-3-yl}acetonitrile tris(trifluoroacetate)], the IC50 on human JAK1 (Table 4) was less than 10 nM. Moreover, at human JAK2 (Table 4), the “JAK2/JAK1 IC50 ratio” value is “≧10”.

On to `N#CCC1(n2cc(-c3ncnc4[nH]ccc34)cn2)CN([C@H]2CC[C@@H](Oc3cc(CNCCO)nc(C(F)(F)F)n3)CC2)C1` [Example 11, {1-(cis-4-{[6-{[(2-hydroxyethyl)amino]methyl}-2-(trifluoromethyl)pyrimidin-4-yl]oxy}cyclohexyl)-3-[4-(7H-pyrrolo[2,3-d]pyrimidin-4-yl)-1H-pyrazol-1-yl]azetidin-3-yl}acetonitrile tris(trifluoroacetate) (salt)], for which the 50% inhibitory concentration (IC50) at human JAK1 (Table 4) is less than 10 nM. The “JAK2/JAK1 IC50 ratio” value on human JAK2 (Table 4) was “≧10”.

Compound `CN(CCO)Cc1cc(O[C@H]2CC[C@@H](N3CC(CC#N)(n4cc(-c5ncnc6[nH]ccc56)cn4)C3)CC2)nc(C(F)(F)F)n1` [Example 12, {1-(cis-4-{[6-{[(2-hydroxyethyl)(methyl)amino]methyl}-2-(trifluoromethyl)pyrimidin-4-yl]oxy}cyclohexyl)-3-[4-(7H-pyrrolo[2,3-d]pyrimidin-4-yl)-1H-pyrazol-1-yl]azetidin-3-yl}acetonitrile tris(trifluoroacetate) (salt)] showed an IC50 on human JAK1 (Table 4) of less than 10 nM. For the same compound, at human JAK2 (Table 4), the “JAK2/JAK1 IC50 ratio” value is listed as “≧10”.

For `CCN(CCO)Cc1cc(O[C@H]2CC[C@@H](N3CC(CC#N)(n4cc(-c5ncnc6[nH]ccc56)cn4)C3)CC2)nc(C(F)(F)F)n1` [Example 13, {1-(cis-4-{[6-{[ethyl(2-hydroxyethyl)amino]methyl}-2-(trifluoromethyl)pyrimidin-4-yl]oxy}cyclohexyl)-3-[4-(7H-pyrrolo[2,3-d]pyrimidin-4-yl)-1H-pyrazol-1-yl]azetidin-3-yl}acetonitrile tris(trifluoroacetate) (salt)], the IC50 against human JAK1 (Table 4) is less than 10 nM. On human JAK2 (Table 4), the “JAK2/JAK1 IC50 ratio” value is recorded as “≧10”.

In turn, `N#CCC1(n2cc(-c3ncnc4[nH]ccc34)cn2)CN([C@H]2CC[C@@H](Oc3cc(CNCC(F)(F)F)nc(C(F)(F)F)n3)CC2)C1.O=C(O)C(F)(F)F.O=C(O)C(F)(F)F.O=C(O)C(F)(F)F` [Example 14, [3-[4-(7H-pyrrolo[2,3-d]pyrimidin-4-yl)-1H-pyrazol-1-yl]-1-(cis-4-{[6-{[(2,2,2-trifluoroethyl)amino]methyl}-2-(trifluoromethyl)pyrimidin-4-yl]oxy}cyclohexyl)azetidin-3-yl]acetonitrile tris(trifluoroacetate)] came in with an IC50 against human JAK1 (Table 4) of less than 10 nM. The “JAK2/JAK1 IC50 ratio” value on human JAK2 (Table 4) is reported as “≧10”.

`N#CCC1(n2cc(-c3ncnc4[nH]ccc34)cn2)CN([C@H]2CC[C@@H](Oc3cc(CNCCF)nc(C(F)(F)F)n3)CC2)C1.O=C(O)C(F)(F)F.O=C(O)C(F)(F)F.O=C(O)C(F)(F)F` [Example 15, {1-(cis-4-{[6-{[(2-fluoroethyl)amino]methyl}-2-(trifluoromethyl)pyrimidin-4-yl]oxy}cyclohexyl)-3-[4-(7H-pyrrolo[2,3-d]pyrimidin-4-yl)-1H-pyrazol-1-yl]azetidin-3-yl}acetonitrile tris(trifluoroacetate)]: the IC50 on human JAK1 (Table 4) is less than 10 nM. The “JAK2/JAK1 IC50 ratio” value at human JAK2 (Table 4) is listed as “≧10”.

Values taken from patent US9359358B2, “Cyclohexyl azetidine derivatives as JAK inhibitors” (Incyte Holdings Corporation, priority 2011, dated 2016).
